Marks after values point to notes of the source that are not given here.
Tests used:
[1] = tested on: human peripheral blood lymphocytes; assay type: cell-based; settings: alone, 3 h, IRI 9.0 mg/L, bleomycin 15 mg/L; for Total No. of Cells in Apoptosis / Total No. of Nonviable Cells: scored along with 4000 binucleated cells
Source text: While screening microscope preparations to determine trends in the levels of the main CBMN assay descriptors, nonviable cells were also simultaneously counted on the same slides. Their discrimination was based on the specific morphological features typical for apoptosis or necrosis. It is well known that the biological significance of these phenomena differs deeply, and that the determination of the predominant type of cell death represents a very important issue in each experimental setting.
For each experimental group, we also calculated the ratio between the recorded number of nonviable cells and the cells in apoptosis (Table 5). According to reference, a ratio ≤ 1 means a prevalence of apoptotic events that induce cell death, while a ratio > 1 indicates the acute toxicity of the tested substance that promotes necrosis.

[2] = tested on: human peripheral blood lymphocytes; assay: CBMN cytome assay: micronuclei, nuclear buds, nucleoplasmic bridges; settings: alone, 3 h; IRI 9.0 mg/L, bleomycin 15 mg/L
Description: The CBMN assay was performed in line with standard protocols [8, 23].
To collect the blood sample, lithium heparin-coated tubes were used (BD vacutainer® with LH 170 I.U., Becton Dickinson: BD-Plymouth PL6 78P, UK).
There were 15 experimental groups altogether. The same experimental design was applied in two independent trials, each of which had two replicate cultures per experimental group; therefore, four replicate cultures for every single experimental group were established.
To induce cell division prior to exposure to the test chemicals, lymphocytes were stimulated with the mitogen phytohemagglutinin (PHA). Cultures were kept in a humidified atmosphere of 5% CO2 at 37 °C.
They started 41 h after PHA stimulation and lasted for 3 h at 37 °C.
Upon completion of exposure, lymphocyte cultures were centrifuged at 100× g. […] This procedure was timed for the 44th hour of lymphocyte cultivation, which represents a critical point for adding of cytoB to hinder cytokinesis and obtain binucleated cells. All treated and control cultures were further maintained at 37 °C until the end of the 72nd hour of cultivation, according to the above-mentioned standard protocols.
The first step in the preparation of microscopic slides was harvesting of cells by centrifugation (100× g), followed by treatment with 0.075 mol/L potassium chloride and succeeded by centrifugation. The sediments of cells were repeatedly fixed with methanol/acetic acid (3:1 v/v) followed by centrifugation. The final lymphocyte suspension was pipetted onto clean microscope slides. For staining, 5% aqueous solution of Giemsa dye was used. Slides were screened using a light microscope at 1000× magnification. For morphological discrimination of micronuclei (MNi), nuclear buds (NBs), nucleoplasmic bridges (NPBs) and cells in apoptosis or necrosis, the criteria by Fenech et al. [25] and Fenech [23] were applied. To determine their frequencies, per experimental point, a total of 4 × 1000 binucleated (BN) cells were scored.
This value was first used to estimate the number of MNi required to reach a decrease and an increase considered significant at a 5% significance level.

[3] = tested on: human peripheral blood lymphocytes; assay: CBMN cytome assay: lymphocyte proliferation (M1-M4, CBPI, RI); assay type: cell-based; settings: alone, 3 h; IRI 9.0 mg/L, bleomycin 15 mg/L
Description: On the same slides, parameters of cell proliferation and cytotoxicity were also evaluated, in line with the OECD protocol.

## Bleomycin [reference compound]
[1]
  Ratio (nonviable cells and cells in apoptosis): 0.6
  Total No. of Cells in Apoptosis: 59
  Total No. of Nonviable Cells: 100
[2]
  Distribution of BNMN Cells with 1 MN: 65 *
  Distribution of BNMN Cells with 2 MN: 11 iri, g10+iri
  Distribution of BNMN Cells with 3 MN: 2
  Distribution of BNMN Cells with 4 MN: 1
  Distribution of BNNB Cells with 1 NB: 49 *
  Distribution of BNNB Cells with 2 NB: 4 c,p1,p5,p10,g1, g5,g10, p1+iri, p5+iri, p10+iri, g5+iri, g10+iri
  Distribution of BNNPB Cells with 1 NPB: 7 c,p1,p5,p10,g1, g5,g10, p1+iri, p5+iri, p10+iri, g1+iri, g5+iri, g10+iri
  Distribution of BNNPB Cells with 2 NPB: 0
  Micronuclei (MNi) Mean (BNMN)1000 ± SD: 19.75 ± 3.77
  Micronuclei (MNi) Mean (MNi)1000 ± SD: 24.25 ± 6.24
  Micronuclei (MNi) Total (BNMN)4000: 79 *
  Micronuclei (MNi) Total (MNi)4000: 97 *
  Nuclear Buds (NBs) Mean (BNNB)1000 ± SD: 13.25 ± 0.96
  Nuclear Buds (NBs) Mean (NBs)1000 ± SD: 14.25 ± 0.50
  Nuclear Buds (NBs) Total (BNNB)4000: 53 *
  Nuclear Buds (NBs) Total (NBs)4000: 57 *
  Nucleoplasmic Bridges (NPBs) Mean (BNNPB)1000 ± SD: 1.75 ± 1.26 c,p1,p5,p10, g1,g5,g10, p1+iri, p5+iri, p10+iri, g1+iri, g5+iri, g10+iri
  Nucleoplasmic Bridges (NPBs) Mean (NPBs)1000 ± SD: 1.75 ± 1.26 c,p1,p5,p10, g1,g5,g10, p1+iri, p5+iri, p10+iri, g1+iri, g5+iri, g10+iri
  Nucleoplasmic Bridges (NPBs) Total (BNNPB)4000: 7 c,p1,p5, p10,g1,g5,g10,p1+iri,p5+iri, p10+iri, g1+iri, g5+iri, g10+iri
  Nucleoplasmic Bridges (NPBs) Total (NPBs)4000: 7 c,p1,p5,p10,g1,g5,g10,p1+iri, p5+iri, p10+iri, g1+iri, g5+iri, g10+iri
[3]
  % of Cells with 1 to 4 Nuclei M1: 45.5 ^↑ %
  % of Cells with 1 to 4 Nuclei M2: 46.1 ^↓ %
  % of Cells with 1 to 4 Nuclei M3: 4.2%
  % of Cells with 1 to 4 Nuclei M4: 4.2 ^↓ %
  CBPI: 1.629
  Replication Index (%): 64.0%

## CCc1c2c(nc3ccc(OC(=O)N4CCC(N5CCCCC5)CC4)cc13)-c1cc3c(c(=O)n1C2)COC(=O)[C@]3(O)CC [Irinotecan, reference compound]
[1]
  Total No. of Cells in Apoptosis: 42
  Total No. of Nonviable Cells: 76
[3]
  % of Cells with 1 to 4 Nuclei M1: 43.1 ^↑ %
  % of Cells with 1 to 4 Nuclei M2: 52.9 ^↓ %
  % of Cells with 1 to 4 Nuclei M3: 2.0 ^↓ %
  % of Cells with 1 to 4 Nuclei M4: 2.0 ^↓ %
  CBPI: 1.609

From publication PMC11946679 (Toxics, 2025)
